Biological target: T1, Msh2–Msh6 (Saccharomyces cerevisiae, UniProt P25847+Q03834, Q03834:K988A)
T1 sequence (P25847 1-964): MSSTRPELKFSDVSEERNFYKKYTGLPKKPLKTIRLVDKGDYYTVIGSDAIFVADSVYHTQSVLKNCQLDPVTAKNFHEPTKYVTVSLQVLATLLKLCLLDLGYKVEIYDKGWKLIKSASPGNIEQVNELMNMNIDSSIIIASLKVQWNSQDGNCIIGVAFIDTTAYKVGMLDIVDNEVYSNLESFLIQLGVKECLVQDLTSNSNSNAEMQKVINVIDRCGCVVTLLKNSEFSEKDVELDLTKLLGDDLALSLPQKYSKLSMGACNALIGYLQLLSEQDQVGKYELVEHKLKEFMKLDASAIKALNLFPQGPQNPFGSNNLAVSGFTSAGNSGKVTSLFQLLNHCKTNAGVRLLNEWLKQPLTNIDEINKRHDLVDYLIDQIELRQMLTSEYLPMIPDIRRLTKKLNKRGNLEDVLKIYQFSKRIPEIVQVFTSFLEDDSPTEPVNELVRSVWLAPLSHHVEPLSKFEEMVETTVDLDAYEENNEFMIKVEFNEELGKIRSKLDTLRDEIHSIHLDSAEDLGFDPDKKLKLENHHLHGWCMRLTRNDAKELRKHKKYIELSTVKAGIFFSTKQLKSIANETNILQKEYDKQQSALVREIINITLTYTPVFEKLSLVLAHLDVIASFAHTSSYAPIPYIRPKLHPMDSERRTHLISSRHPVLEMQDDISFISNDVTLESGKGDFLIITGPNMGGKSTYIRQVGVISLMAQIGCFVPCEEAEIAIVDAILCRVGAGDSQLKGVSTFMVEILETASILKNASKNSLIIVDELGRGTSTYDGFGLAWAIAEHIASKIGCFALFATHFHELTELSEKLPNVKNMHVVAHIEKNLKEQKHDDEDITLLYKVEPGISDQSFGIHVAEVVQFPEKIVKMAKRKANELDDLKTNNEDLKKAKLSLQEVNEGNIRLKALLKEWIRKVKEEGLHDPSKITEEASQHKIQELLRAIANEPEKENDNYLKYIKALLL
T1 sequence (Q03834 1-1242 K988A): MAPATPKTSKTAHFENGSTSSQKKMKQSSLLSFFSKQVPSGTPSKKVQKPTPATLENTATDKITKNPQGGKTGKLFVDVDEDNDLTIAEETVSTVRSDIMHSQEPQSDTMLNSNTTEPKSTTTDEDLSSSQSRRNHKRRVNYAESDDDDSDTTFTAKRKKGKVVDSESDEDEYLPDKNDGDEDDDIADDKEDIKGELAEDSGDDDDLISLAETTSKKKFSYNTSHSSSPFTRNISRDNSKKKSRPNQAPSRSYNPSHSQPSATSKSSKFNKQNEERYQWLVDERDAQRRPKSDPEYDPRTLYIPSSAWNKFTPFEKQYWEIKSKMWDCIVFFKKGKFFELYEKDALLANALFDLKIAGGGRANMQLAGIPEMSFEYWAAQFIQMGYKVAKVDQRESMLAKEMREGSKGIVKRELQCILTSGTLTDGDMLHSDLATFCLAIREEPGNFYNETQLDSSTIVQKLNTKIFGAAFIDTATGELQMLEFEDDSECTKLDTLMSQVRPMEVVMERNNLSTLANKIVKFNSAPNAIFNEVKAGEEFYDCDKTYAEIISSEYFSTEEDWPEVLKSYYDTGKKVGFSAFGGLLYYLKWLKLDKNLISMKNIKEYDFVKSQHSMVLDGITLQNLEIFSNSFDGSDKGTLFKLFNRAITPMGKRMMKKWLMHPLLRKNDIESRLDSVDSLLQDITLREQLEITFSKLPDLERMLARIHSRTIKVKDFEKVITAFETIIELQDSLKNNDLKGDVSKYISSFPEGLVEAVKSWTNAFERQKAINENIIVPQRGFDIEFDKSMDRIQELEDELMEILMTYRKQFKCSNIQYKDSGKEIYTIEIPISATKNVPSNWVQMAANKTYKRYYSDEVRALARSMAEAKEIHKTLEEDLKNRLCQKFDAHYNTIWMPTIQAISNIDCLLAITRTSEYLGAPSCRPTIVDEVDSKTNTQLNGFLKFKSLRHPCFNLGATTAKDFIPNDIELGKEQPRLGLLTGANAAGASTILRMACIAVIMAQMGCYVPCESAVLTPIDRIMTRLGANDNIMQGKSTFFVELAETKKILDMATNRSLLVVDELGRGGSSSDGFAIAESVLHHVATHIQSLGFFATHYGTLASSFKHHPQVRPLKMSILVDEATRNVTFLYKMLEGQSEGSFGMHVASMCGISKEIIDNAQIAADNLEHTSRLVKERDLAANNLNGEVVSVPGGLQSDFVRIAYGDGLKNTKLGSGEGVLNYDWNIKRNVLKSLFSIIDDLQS
Assay: UV cross-linking of [γ-32P]ATP, SDS-PAGE, phosphorimaging
Assay type: binding
Details: labelled compound; no Mg2+, EDTA, pH 8, on ice; Msh2 site at 60 μM ATP, Msh6 site at 1 μM ATP

Nc1ncnc2c1ncn2[C@@H]1O[C@H](COP(=O)(O)OP(=O)(O)OP(=O)(O)O)[C@@H](O)[C@H]1O [ATP]
relative ATP binding: Msh2–Msh6(K988A) and Msh2–Msh6(K988R) mutant complexes had partial ATP binding defects at the Msh2 subunit

Reference: paper PMC6254361, “The properties of Msh2–Msh6 ATP binding mutants suggest a signal amplification mechanism in DNA mismatch repair” (The Journal of Biological Chemistry, 2018)
